Reference: paper PMC10224441, “Structural Manipulations of Marine Natural Products Inspire a New Library of 3-Amino-1,2,4-Triazine PDK Inhibitors Endowed with Antitumor Activity in Pancreatic Ductal Adenocarcinoma” (Marine Drugs, 2023)
Counter-ions that a name gives are not always drawn. Like-named read-outs stand apart in the source and are kept apart here.

Columns and labels:
recombinant human PDK1 = target: T1, recombinant human PDK1 (Homo sapiens, UniProt Q15118); assay: PDK1 ADPGlo Kinase Assay; format: biochemical; settings: for IC50: isolated PDK1 isoform, four-parameter logistic model, mean of 3 independent experiments, read-out: IC50 (µM) ± S.D. PDK1
T1 construct: purchased Abcam
Procedure: The ability of the tested compounds to hamper the activity of PDK1-4 isoforms was firstly evaluated by means of a chemioluminescent assay, the ADPGlo™ Kinase Assay kit (Promega Corporation, Madison, WI, USA).
The in vitro inhibitory activity of tested compounds on recombinant human PDK1-4 isoforms (Abcam, Cambridge, MA, USA) was evaluated by using the ADPGlo™ Kinase Assay kit from Promega (Promega Corporation, Madison, WI, USA) following the instructions of the manufacturer, as previously described.

[1] = tested on: PSN-1 cells (KRAS-mutant PDAC); assay: 2D cytotoxicity, MTT assay, PSN-1; format: cell-based; settings: Homo sapiens, read-out: IC50 (µM) ± S.D. PSN-1 (2D)
Procedure: (§1) All newly developed 1,2,4-amino-triazine compounds were screened for their cytotoxic activity against two human PDAC cell lines, namely, a KRAS-wild-type PDAC cell line (BxPC-3 cells) and a KRAS-mutant PDAC cell line (PSN-1 cells). […] The cytotoxicity parameters, expressed in terms of IC50 and obtained after 72 h of drug exposure by MTT assay, are reported in Table 3.
(§2) All tested compounds were dissolved in DMSO just before the experiment, and a calculated amount of drug solution was added to the cell growth medium to a final solvent concentration of 0.5%, which had no detectable effects on cell viability.
(§3) Human pancreatic PSN-1 and BxPC-3 carcinoma cell lines were obtained by American Type Culture Collection (ATCC, Rockville, MD, USA). Cell lines were maintained in the logarithmic phase at 37 °C in a 5% carbon dioxide atmosphere using RPMI-1640 medium (EuroClone) containing 10% fetal calf serum (EuroClone, Milan, Italy), antibiotics (50 units/mL penicillin and 50 μg/mL streptomycin) and 2 mM l-glutamine.
(§4) The growth inhibitory effect on tumor cells was evaluated by means of MTT assay. Briefly, 5 × 10^3 cells/well were seeded in 96-well microplates in a growth medium (100 μL). After 24 h, the medium was removed and replaced with a fresh one containing the compound to be studied at the appropriate concentration. Triplicate cultures were established for each treatment. After 72 h, each well was treated with 10 μL of a 5 mg/mL MTT saline solution, and following 5 h of incubation, 100 μL of a sodium dodecyl sulfate (SDS) solution in HCl 0.01 M was added. After overnight incubation, cell growth inhibition was detected by measuring the absorbance of each well at 570 nm using a Bio-Rad 680 microplate reader. The mean absorbance for each drug dose was expressed as a percentage of the control untreated well absorbance and plotted vs. drug concentration. IC50 values, the drug concentrations that reduce the mean absorbance at 570 nm to 50% of those in the untreated control wells, were calculated by the four-parameter logistic (4-PL) model. The evaluation was based on means from at least four independent experiments.

PSN-1 spheroids = assay: 3D spheroid cytotoxicity, acid phosphatase (APH) assay, PSN-1; format: cell-based; settings: Homo sapiens, PSN1, 72 h, acid phosphatase (APH) test, read-out: IC50 (µM) ± S.D. PSN-1 (3D spheroids)
Procedure: Prompted by these encouraging results, we also screened the newly developed 1,2,4-triazine compounds against 3D spheroids of PDAC KRAS wild-type and mutant cells, to further estimate their anticancer potential in a more predictive environment. […] The PDAC cancer spheroids were treated with tested compounds for 72 h, and cell viability was assessed by means of the acid phosphatase (APH) assay (Table 3). The efficacy of gemcitabine as well as of DCA and DAP was assessed under the same experimental conditions.
Spheroid cultures were obtained by seeding 2.5 × 10^3 PSN-1 cancer cells/well in a round-bottom non-treated tissue culture 96-well plate (Greiner Bio-one, Kremsmünster, Austria) in phenol red-free RPMI-1640 medium (Sigma Chemical Co, St. Louis, MO, USA) containing 10% fetal calf serum and supplemented with 20% methylcellulose stock solution.
An APH-modified assay was used for determining cell viability in 3D spheroids, as previously described. Briefly, the pre-seeded spheroids were treated with fresh medium containing the compound to be studied at the appropriate concentration (range 2.5–200 μM). Triplicate cultures were established for each treatment. After 72 h, each well was treated with 100 μL of the assay buffer (0.1 M sodium acetate, 0.1% Triton-X-100, supplemented with ImmunoPure p-nitrophenyl phosphate; Sigma Chemical Co.) and, following 3 h of incubation, 10 μL of 1 M NaOH solution were added. The inhibition of the cell growth induced by the tested compounds was detected by measuring the absorbance of each well at 405 nm, using a Bio-Rad 680 microplate reader. The mean absorbance for each drug dose was expressed as a percentage of the control untreated well absorbance (T/C) and plotted vs. drug concentration. IC50 values, the drug concentrations that reduce the mean absorbance at 405 nm 50% of those in the untreated control wells, were calculated by the four-parameter logistic (4-PL) model. The evaluation was based on means from at least four independent experiments.

BxPC-3 spheroids = assay: 3D spheroid cytotoxicity, acid phosphatase (APH) assay, BxPC-3; format: cell-based; settings: Homo sapiens, 72 h, acid phosphatase (APH) test, read-out: IC50 (µM) ± S.D. BxPC-3 (3D spheroids)
[2] = tested on: BxPC-3 cells (KRAS-wild-type PDAC); assay: 2D cytotoxicity, MTT assay, BxPC-3; format: cell-based; settings: Homo sapiens, read-out: IC50 (µM) ± S.D. BxPC-3 (2D)
Procedure: as §1, §2, §3, §4

[3] = PSN1, 72 h exposure, MTT test, 2D culture
[4] = BXPC-3, 72 h exposure, MTT test, 2D culture

T1 sequence (Q15118 29-436): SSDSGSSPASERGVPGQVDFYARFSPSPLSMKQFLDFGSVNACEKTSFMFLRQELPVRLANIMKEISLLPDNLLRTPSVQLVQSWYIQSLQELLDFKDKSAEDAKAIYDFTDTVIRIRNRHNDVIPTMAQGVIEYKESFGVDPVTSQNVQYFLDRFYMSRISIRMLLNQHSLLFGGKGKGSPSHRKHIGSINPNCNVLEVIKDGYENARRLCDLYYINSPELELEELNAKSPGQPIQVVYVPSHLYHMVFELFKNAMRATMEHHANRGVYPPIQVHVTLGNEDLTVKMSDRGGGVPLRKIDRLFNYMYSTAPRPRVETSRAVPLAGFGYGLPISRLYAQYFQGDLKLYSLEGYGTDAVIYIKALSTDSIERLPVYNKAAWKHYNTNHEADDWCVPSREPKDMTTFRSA

Row | SMILES | melting point [°C] | IC50 (recombinant human PDK1) [µM] | decrease in potency on PDK1 relative to 5d and 5j (recombinant human PDK1; compared with the other two examined ligands (5d, 5j)) [fold] | IC50 [1, 3] [µM] | IC50 (PSN-1 spheroids) [µM] | IC50 (BxPC-3 spheroids) [µM] | IC50 [2, 4] [µM] | IC50 ([1]; PSN1, 72 h) [µM] | IC50 ([2]; BXPC-3, 72 h) [µM]
1 | Cn1cc(-c2nnc(N)nc2-c2cn(C)c3ncc(Br)cc23)c2ccccc21 [4b, 5-(5-Bromo-1-methyl-1H-pyrrolo[2,3-b]pyridin-3-yl)-6-(1-methyl-1H-indol-3-yl)-1,2,4-triazin-3-amine] | 260 | 0.33 ± 0.05 | – | 19.5 ± 2.9 | 188 ± 13.8 | 224 ± 14.8 | 23.5 ± 3.2 | – | –
2 | COc1ccc2c(c1)c(-c1nnc(N)nc1-c1cn(C)c3ncccc13)cn2C [4i, 6-(5-methoxy-1-methyl-1H-indol-3-yl)-5-(1-methyl-1H-pyrrolo[2,3-b]pyridin-3-yl)-1,2,4-triazin-3-amine] | 217 | 0.33 ± 0.1 | – | 26.5 ± 4 | 140 ± 7.5 | 189 ± 10.9 | 31.2 ± 5.5 | – | –
3 | Cn1cc(-c2nc(N)nnc2-c2cn(C)c3ncccc23)c2ccccc21 [5a, 5-(1-Methyl-1H-indol-3-yl)-6-(1-methyl-1H-pyrrolo[2,3-b]pyridin-3-yl)-1,2,4-triazin-3-amine] | 235.5 | 0.32 ± 0.1 | – | 22.2 ± 2.7 | 78.8 ± 8.5 | 170 ± 9.4 | 27.2 ± 3.7 | – | –
4 | O=C(O)C(Cl)Cl [DCA, Dichloroacetate, reference compound] | – | – | – | – | 29800 ± 357 | – | – | > 1000 | > 1000
5 | Nc1ccn([C@@H]2O[C@H](CO)[C@@H](O)C2(F)F)c(=O)n1 [Gemcitabine, gemcitabine hydrochloride, reference compound] | – | – | – | 0.1 ± 0.04 | 103 ± 6.3 | 160 ± 5.6 | 0.02 ± 0.003 | – | –

The remaining molecules from weak to strong by IC50 (recombinant human PDK1), led by results:

Row | melting point [°C] | IC50 (recombinant human PDK1) [µM] | decrease in potency on PDK1 relative to 5d and 5j (recombinant human PDK1; compared with the other two examined ligands (5d, 5j)) [fold] | SMILES | IC50 [1, 3] [µM] | IC50 (PSN-1 spheroids) [µM] | IC50 (BxPC-3 spheroids) [µM] | IC50 [2, 4] [µM] | IC50 ([1]; PSN1, 72 h) [µM] | IC50 ([2]; BXPC-3, 72 h) [µM]
6 | 268.1 | 0.3 ± 0.1 | – | Cn1cc(-c2nnc(N)nc2-c2cn(C)c3ncccc23)c2ccccc21 [4a, 6-(1-Methyl-1H-indol-3-yl)-5-(1-methyl-1H-pyrrolo[2,3-b]pyridin-3-yl)-1,2,4-triazin-3-amine] | 11.3 ± 2 | 97.5 ± 2.8 | 141.3 ± 0.1 | 15.7 ± 2.2 | – | –
7 | 178 | 0.29 ± 0.06 | 6 | Cn1cc(-c2nnc(N)nc2-c2cn(C)c3ncccc23)c2cc(Cl)ccc21 [4e, 6-(5-Chloro-1-methyl-1H-indol-3-yl)-5-(1-methyl-1H-pyrrolo[2,3-b]pyridin-3-yl)-1,2,4-triazin-3-amine] | 26.5 ± 4.3 | 59.6 ± 4.5 | 160 ± 11.4 | 32.3 ± 8.2 | – | –
8 | 176.3 | 0.26 ± 0.07 | – | Cn1cc(-c2nnc(N)nc2-c2cn(C)c3ncccc23)c2cc(Br)ccc21 [4c, 6-(5-Bromo-1-methyl-1H-indol-3-yl)-5-(1-methyl-1H-pyrrolo[2,3-b]pyridin-3-yl)-1,2,4-triazin-3-amine] | 7.8 ± 1.5 | 55.8 ± 3.5 | 76.8 ± 5.1 | 9.5 ± 1.7 | – | –
9 | – | 0.21 ± 0.07 | – | Cn1cc(-c2nc(N)nnc2-c2cn(C)c3ncc(Br)cc23)c2ccccc21 [5b, 6-(5-Bromo-1-methyl-1H-pyrrolo[2,3-b]pyridin-3-yl)-5-(1-methyl-1H-indol-3-yl)-1,2,4-triazin-3-ylamine] | 5.2 ± 0.9 | 73.6 ± 6.8 | 68.5 ± 2.5 | 9.4 ± 1.3 | – | –
10 | 267.4 | 0.19 ± 0.04 | – | Cn1cc(-c2nnc(N)nc2-c2cn(C)c3ncccc23)c2cc(F)ccc21 [4g, 6-(5-Fluoro-1-methyl-1H-indol-3-yl)-5-(1-methyl-1H-pyrrolo[2,3-b]pyridin-3-yl)-1,2,4-triazin-3-amine] | 4.5 ± 1.3 | 65.5 ± 6.8 | 71.5 ± 5.2 | 6.5 ± 1.1 | – | –
11 | 197.6 | 0.18 ± 0.06 | – | COc1ccc2c(c1)c(-c1nnc(N)nc1-c1cn(C)c3ncc(Br)cc13)cn2C [4j, 5-(5-Bromo-1-methyl-1H-pyrrolo[2,3-b]pyridin-3-yl)-6-(5-methoxy-1-methyl-1H-indol-3-yl)-1,2,4-triazin-3-amine] | 27.8 ± 3.8 | 103 ± 8.7 | 160 ± 10.5 | 30.5 ± 3.4 | – | –
